Measured values as given in patent publication US20230293539A1, “MLL1-WDR5 PROTEIN-PROTEIN INTERACTION INHIBITOR COMPOUNDS AND USES THEREOF” (HUYABIO International, LLC, priority 2022, published 2023).
Like-named read-outs stand apart in the source and are kept apart here.

Legend:
[1] = molecular target: T1, BRD2-BD1 (Homo sapiens, UniProt P25440); test: Selectivity panel (Table 3); type: binding
T1 construct: BRD2-BD1

[2] = molecular target: GLS1 (Homo sapiens, UniProt O94925); test: Selectivity panel (Table 3); type: biochemical
Sequence of GLS1 (O94925 73-669 limits assumed, species assumed): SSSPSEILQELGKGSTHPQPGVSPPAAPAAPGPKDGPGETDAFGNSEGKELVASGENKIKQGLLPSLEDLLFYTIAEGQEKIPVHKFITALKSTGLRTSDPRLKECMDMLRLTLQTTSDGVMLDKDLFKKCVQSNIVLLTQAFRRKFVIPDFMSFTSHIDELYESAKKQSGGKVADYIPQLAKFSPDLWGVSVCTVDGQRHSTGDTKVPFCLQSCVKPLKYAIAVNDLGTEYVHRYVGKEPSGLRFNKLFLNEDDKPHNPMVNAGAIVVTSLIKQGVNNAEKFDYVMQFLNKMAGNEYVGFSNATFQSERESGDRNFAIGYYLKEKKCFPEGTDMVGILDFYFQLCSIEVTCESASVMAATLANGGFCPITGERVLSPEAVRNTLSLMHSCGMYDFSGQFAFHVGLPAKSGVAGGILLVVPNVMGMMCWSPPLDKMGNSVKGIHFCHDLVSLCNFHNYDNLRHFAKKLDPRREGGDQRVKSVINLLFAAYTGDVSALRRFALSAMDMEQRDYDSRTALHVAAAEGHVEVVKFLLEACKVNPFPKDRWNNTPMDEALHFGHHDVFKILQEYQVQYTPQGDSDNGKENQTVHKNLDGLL

[3] = molecular target: HDAC6 (Homo sapiens, UniProt Q9UBN7); test: Selectivity panel (Table 3); type: biochemical
Sequence of HDAC6 (Q9UBN7 whole entry, species assumed): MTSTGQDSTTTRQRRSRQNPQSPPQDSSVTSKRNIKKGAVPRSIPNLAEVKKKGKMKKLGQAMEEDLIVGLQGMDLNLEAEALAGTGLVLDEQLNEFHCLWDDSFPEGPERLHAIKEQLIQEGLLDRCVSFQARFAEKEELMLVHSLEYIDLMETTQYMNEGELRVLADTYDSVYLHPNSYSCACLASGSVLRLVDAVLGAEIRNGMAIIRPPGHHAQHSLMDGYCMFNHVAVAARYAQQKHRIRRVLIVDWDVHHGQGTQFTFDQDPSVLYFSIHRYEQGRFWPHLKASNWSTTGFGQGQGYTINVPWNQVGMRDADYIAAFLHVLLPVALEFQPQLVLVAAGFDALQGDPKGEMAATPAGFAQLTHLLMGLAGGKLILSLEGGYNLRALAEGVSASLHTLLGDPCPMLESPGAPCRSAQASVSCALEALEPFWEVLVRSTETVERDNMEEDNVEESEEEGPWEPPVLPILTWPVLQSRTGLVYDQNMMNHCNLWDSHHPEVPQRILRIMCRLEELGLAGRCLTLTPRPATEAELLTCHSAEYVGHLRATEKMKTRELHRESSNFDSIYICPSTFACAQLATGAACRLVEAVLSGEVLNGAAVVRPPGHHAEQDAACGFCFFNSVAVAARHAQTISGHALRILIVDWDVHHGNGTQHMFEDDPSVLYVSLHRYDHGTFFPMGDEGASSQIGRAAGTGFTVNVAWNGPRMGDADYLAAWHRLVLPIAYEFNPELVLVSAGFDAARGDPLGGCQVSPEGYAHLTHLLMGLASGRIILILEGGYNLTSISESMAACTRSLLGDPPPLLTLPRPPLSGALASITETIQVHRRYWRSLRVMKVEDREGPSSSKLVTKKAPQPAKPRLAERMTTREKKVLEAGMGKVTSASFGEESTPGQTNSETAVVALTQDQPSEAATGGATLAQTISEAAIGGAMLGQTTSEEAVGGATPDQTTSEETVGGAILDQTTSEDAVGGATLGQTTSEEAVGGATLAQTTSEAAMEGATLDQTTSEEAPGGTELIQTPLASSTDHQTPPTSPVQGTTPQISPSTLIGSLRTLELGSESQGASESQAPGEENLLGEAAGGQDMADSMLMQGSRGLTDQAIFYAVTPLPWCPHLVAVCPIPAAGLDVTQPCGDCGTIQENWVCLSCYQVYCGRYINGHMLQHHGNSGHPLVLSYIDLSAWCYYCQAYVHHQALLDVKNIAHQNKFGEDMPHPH

[4] = molecular target: KRAS G12V (Homo sapiens, UniProt P01116, G12V); test: Selectivity panel (Table 3); type: binding
Sequence of KRAS G12V (P01116 1-188 isoform P01116-2 G12V): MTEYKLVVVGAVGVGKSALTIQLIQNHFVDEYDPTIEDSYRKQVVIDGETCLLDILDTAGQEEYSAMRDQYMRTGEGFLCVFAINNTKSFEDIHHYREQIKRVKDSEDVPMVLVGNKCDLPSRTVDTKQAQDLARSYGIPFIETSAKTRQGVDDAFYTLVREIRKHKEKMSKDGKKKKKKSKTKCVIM

[5] = molecular target: MALTI (Homo sapiens, UniProt Q9UDY8); test: Selectivity panel (Table 3); type: biochemical
Sequence of MALTI (Q9UDY8 whole entry): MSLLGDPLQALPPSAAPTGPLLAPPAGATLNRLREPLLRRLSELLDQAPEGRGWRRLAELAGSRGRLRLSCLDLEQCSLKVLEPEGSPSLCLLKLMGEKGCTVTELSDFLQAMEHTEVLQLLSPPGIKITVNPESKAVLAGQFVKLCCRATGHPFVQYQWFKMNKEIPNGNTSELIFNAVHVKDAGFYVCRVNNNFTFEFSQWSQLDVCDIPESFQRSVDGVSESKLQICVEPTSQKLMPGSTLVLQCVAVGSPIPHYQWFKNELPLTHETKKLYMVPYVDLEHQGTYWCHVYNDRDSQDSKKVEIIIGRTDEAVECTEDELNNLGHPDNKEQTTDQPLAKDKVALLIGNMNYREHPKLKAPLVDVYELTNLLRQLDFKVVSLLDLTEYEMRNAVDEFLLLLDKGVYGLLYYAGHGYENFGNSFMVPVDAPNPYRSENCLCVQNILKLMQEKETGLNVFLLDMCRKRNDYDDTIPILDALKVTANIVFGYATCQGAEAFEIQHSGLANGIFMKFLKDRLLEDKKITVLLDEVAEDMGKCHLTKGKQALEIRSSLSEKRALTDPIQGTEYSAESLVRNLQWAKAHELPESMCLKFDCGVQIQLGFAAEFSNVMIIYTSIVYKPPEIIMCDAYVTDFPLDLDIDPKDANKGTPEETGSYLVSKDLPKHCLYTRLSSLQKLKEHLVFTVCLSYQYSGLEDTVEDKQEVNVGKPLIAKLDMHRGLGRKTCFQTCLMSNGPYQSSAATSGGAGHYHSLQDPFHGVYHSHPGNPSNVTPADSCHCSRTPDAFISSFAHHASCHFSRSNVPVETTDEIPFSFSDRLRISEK

[6] = molecular target: PRMT5 (Homo sapiens, UniProt O14744); test: Selectivity panel (Table 3); type: biochemical
Sequence of PRMT5 (O14744 whole entry, species assumed): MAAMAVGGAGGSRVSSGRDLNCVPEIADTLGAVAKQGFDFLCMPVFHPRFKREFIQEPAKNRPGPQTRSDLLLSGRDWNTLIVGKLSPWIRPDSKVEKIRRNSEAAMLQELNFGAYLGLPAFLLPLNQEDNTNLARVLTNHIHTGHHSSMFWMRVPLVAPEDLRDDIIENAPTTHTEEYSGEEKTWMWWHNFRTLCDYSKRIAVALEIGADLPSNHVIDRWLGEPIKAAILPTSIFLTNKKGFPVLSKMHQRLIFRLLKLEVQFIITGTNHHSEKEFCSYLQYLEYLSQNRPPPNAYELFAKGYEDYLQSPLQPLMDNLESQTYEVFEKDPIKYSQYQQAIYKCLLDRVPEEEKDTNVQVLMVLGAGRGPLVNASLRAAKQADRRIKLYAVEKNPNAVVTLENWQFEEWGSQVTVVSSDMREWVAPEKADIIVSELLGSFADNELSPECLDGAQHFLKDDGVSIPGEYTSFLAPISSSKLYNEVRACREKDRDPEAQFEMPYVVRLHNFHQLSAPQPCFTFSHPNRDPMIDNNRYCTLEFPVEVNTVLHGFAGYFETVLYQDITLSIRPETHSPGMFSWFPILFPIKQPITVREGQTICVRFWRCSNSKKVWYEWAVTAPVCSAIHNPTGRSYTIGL
Sequence of PRMT5 (Q9BQA1 whole entry partner, species assumed): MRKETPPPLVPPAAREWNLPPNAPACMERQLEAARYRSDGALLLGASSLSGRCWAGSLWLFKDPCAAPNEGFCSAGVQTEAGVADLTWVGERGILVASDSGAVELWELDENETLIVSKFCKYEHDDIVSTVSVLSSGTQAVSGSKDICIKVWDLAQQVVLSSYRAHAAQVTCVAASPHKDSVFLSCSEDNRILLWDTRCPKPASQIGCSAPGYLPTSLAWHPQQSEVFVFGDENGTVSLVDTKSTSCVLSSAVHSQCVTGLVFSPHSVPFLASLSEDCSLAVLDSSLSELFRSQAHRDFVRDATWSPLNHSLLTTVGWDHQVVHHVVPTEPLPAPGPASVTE

[7] = molecular target: SHP2 WT (Homo sapiens, UniProt Q06124); test: Selectivity panel (Table 3); type: biochemical
Sequence of SHP2 WT (Q06124 whole entry): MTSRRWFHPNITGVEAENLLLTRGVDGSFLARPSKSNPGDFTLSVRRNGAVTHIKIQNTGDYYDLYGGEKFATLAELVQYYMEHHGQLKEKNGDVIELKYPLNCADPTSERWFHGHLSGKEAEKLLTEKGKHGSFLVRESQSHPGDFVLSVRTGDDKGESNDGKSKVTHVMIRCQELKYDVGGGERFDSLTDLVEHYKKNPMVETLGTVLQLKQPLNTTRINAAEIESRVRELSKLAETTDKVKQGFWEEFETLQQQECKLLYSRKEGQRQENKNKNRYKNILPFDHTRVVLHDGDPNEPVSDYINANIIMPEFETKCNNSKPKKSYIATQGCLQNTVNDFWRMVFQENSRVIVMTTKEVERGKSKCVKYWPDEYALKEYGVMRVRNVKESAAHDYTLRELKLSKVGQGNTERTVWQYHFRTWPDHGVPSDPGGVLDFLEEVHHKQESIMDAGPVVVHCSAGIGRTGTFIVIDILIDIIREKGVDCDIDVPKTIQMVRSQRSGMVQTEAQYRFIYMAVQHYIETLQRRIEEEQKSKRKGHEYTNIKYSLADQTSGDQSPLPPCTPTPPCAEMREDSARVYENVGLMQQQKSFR

[8] = Liver S9 stability assay; type: in vitro ADME, mouse
Procedure: Liver S9 stability assay: Test compounds (1 μM) and positive control were incubated with 5 mM GSH and liver S9 (1 mg protein/ml) from multiple species (including human, monkey, dog, rat and mouse) at 37° C. at 0, 10, 30, and 60 minutes in duplicate. After adding the stop solution, 100 μL of supernatant were analyzed by LC-MS/MS. The % remaining of test compound, T1/2 (min), and CLint (μL/min/mg) were calculated and were reported.

[9] = Metabolite ID in Liver S9; type: in vitro ADME; conditions: HBI-2375 and metabolites in Mouse liver S9
[10] = Metabolite ID in plasma; type: in vitro ADME; conditions: HBI-2375 and metabolites in Rat plasma
[11] = Metabolite ID in plasma; type: in vitro ADME; conditions: HBI-2375 and metabolites in Dog plasma
[12] = Metabolite ID in plasma; type: in vitro ADME; conditions: HBI-2375 and metabolites in Monkey plasma
[13] = Metabolite ID in plasma; type: in vitro ADME; conditions: HBI-2375 and metabolites in Human plasma
[14] = WBS (whole blood stability) assay; type: in vitro ADME; conditions: for % Remaining after 60 min incubation: 2 μM, 37° C.
Procedure: WBS (whole blood stability) assay: The blood samples were collected freshly from multiple species including human, monkey, dog, rat and mouse. 2 μM of test compound and positive control were incubated with the whole blood at 37° C. at 0, 10, 30, 60, and 120 minutes in duplicate. After adding the stop solution, 200 μL of supernatant were analyzed by LC-MS/MS. The % remaining of test compound and T1/2 (min) were calculated and reported.

[15] = PK profile of HBI-2375 in plasma, brain and CSF in SD rats; type: in vivo; conditions: for AUC(0-t) / Cmax / MRT last / Tmax / Kp: rat; for Kp: po, 40 mg/kg, read-out: AUClast Ratio Tissue/Plasma
Procedure: EXAMPLE 3: PK profile of HBI-2375 (compound of Formula (IIIb) (HYBI-084) in plasma, brain, and cerebrospinal fluid (CSF) in SD rats: This study was conducted in accordance with the Study Protocol and Pharmaron (Ningbo) TSP's Standard Operating Procedures (SOPs) following all regulatory protocols. This study was conducted under non-GLP environment.
The maximal concentrations of HBI-2375 in CSF for males and females were at 1 hr post-dose. The maximal concentrations of HBI-2375 in brain were at 15 min post-dose for males and at 1 hr post-dose for females. The mean values of AUClast for HBI-2375 from high to low were: brain>plasma>CSF for males, and plasma>brain>CSF for females.
Following a single oral gavage administration of HBI-2375 at 40 mg/kg in SD rats, concentrations of HBI-2375 in plasma, brain, and CSF were determined by LC-MS/MS methods. […] The maximal concentrations of HBI-2375 in CSF for males and females were at 1 hr post-dose. The maximal concentrations of HBI-2375 in brain were at 15 min post-dose for males and at 1 hr post-dose for females.

[16] = in vitro; conditions: dog, plasma
[17] = in vitro; conditions: cynomolgus monkey, plasma
[18] = Sprague-Dawley, SD rats, single PO 40 mg/kg, CSF, female
[19] = Sprague-Dawley, SD rats, single PO 40 mg/kg, CSF, male
[20] = Sprague-Dawley, SD rats, single PO 40 mg/kg, brain, female
[21] = Sprague-Dawley, SD rats, single PO 40 mg/kg, brain, male
[22] = Sprague-Dawley, SD rats, single PO 40 mg/kg, plasma, female
[23] = Sprague-Dawley, SD rats, single PO 40 mg/kg, plasma, male
[24] = both sexes, SD rats, single PO 40 mg/kg, brain, mean of male and female
[25] = both sexes, SD rats, single PO 40 mg/kg, plasma, mean of male and female

T1 sequence (P25440 74-180 limits assumed): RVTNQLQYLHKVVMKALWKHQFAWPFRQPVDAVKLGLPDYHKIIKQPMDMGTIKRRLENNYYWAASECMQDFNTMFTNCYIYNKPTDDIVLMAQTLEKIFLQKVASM

Cc1c(F)c(N)cc(C(=O)Nc2cc(-n3cc(C(=O)N4CCN(C)CC4)nn3)c(F)cc2N2C[C@@H](C)N(C)[C@@H](C)C2)c1Cl [HYBI-084, 5-amino-2-chloro-4-fluoro-N-(4-fluoro-5-(4-(4-methylpiperazine-1-carbonyl)-1H-1,2,3-triazol-1-yl)-2-((3S,5R)-3,4,5-trimethylpiperazin-1-yl)phenyl)-3-methylbenzamide]
IC50 [1]: > 1000 nM
IC50 [2]: > 1000 nM
IC50 [3]: > 1000 nM
IC50 [4]: > 1000 nM
IC50 [5]: > 1000 nM
IC50 [6]: > 1000 nM
IC50 [7]: > 1000 nM
half-life at 1 μM ([8]; Mouse liver S9): > 2.42 h
microsomal CLint at 1 μM ([8]; Mouse liver S9): < 4.8 µL/min/mg
% Remaining after 60 min incubation ([8]; Mouse liver S9, 1 μM, 5 mM GSH, 37° C.): 110%
Relative Abundance (UV Peak Area % Total) [9]: 63.02%
Relative Abundance (UV Peak Area % Total) [10]: 93.47%
Relative Abundance (UV Peak Area % Total) [11]: 97.31%
Relative Abundance (UV Peak Area % Total) [12]: 97.58%
Relative Abundance (UV Peak Area % Total) [13]: 97.20%
half-life at 2 μM ([14]; Dog whole blood): > 2.41 h
% Remaining after 60 min incubation ([14]; Dog whole blood): 94.6%
half-life at 2 μM ([14]; Human whole blood): 10.3 h
% Remaining after 60 min incubation ([14]; Human whole blood): 110%
half-life at 2 μM ([14]; Mouse whole blood): > 2.41 h
% Remaining after 60 min incubation ([14]; Mouse whole blood): 108%
half-life at 2 μM ([14]; Rat whole blood): > 2.41 h
% Remaining after 60 min incubation ([14]; Rat whole blood): 109%
AUClast Ratio Female/Male ([15]; SD rats, 40 mg/kg PO, CSF): 6.66
C24hr/Cmax Ratio (%) ([15]; SD rats, 40 mg/kg PO, CSF, female): 11.6%
AUClast Ratio Tissue/Plasma ([15]; SD rats, 40 mg/kg PO, CSF/plasma, male, listed as HBI-2375, 40 mg/kg): 0.0111
AUClast Ratio Female/Male ([15]; SD rats, 40 mg/kg PO, brain): 1.54
C24hr/Cmax Ratio (%) ([15]; SD rats, 40 mg/kg PO, brain, female): 3.24%
C24hr/Cmax Ratio (%) ([15]; SD rats, 40 mg/kg PO, brain, male): 4.18%
AUClast from high to low ([15]; SD rats, 40 mg/kg PO, females): plasma>brain>CSF
AUClast from high to low ([15]; SD rats, 40 mg/kg PO, males): brain>plasma>CSF
AUClast Ratio Female/Male ([15]; SD rats, 40 mg/kg PO, plasma): 2.18
C24hr/Cmax Ratio (%) ([15]; SD rats, 40 mg/kg PO, plasma, female): 1.17%
C24hr/Cmax Ratio (%) ([15]; SD rats, 40 mg/kg PO, plasma, male): 0.697%
distribution ([15]; SD rats, single PO 40 mg/kg): distributed to CSF and brain
duration of exposure in CSF and brain ([15]; SD rats, single PO 40 mg/kg): 24 h
in-life observations ([15]; SD rats, single PO 40 mg/kg): no abnormalities were observed
AUClast ([15]; SD rats, single PO 40 mg/kg, brain, female): 3394 ng·h/g
AUClast ([15]; SD rats, single PO 40 mg/kg, brain, male): 2199 ng·h/g
time of maximal concentration ([15]; SD rats, single PO 40 mg/kg, brain, males): 15 min
AUClast ([15]; SD rats, single PO 40 mg/kg, brain, mean of male and female): 2796 ng·h/g
concentration at 24 h ([15]; SD, brain, Single PO Rat 40 mg/kg, read-out: Mean Brain Concentration, Cmin = 24 h): 22.1 ng/g
AUC(0-t) [15, 18]: 124 ng·h/mL
Cmax [15, 18]: 24 ng/mL
MRT last [15, 18]: 8.41 h
Tmax ([15]; Sprague-Dawley, SD rats, single PO 40 mg/kg, CSF, female, read-out: Tmax): 1 h
AUC(0-t) [15, 19]: 18.6 ng·h/mL
Cmax [15, 19]: 7.48 ng/mL
MRT last [15, 19]: 2 h
Tmax ([15]; Sprague-Dawley, SD rats, single PO 40 mg/kg, CSF, male, read-out: Tmax): 1 h
Cmax [15, 20]: 833 ng/g
MRT last [15, 20]: 5.81 h
Tmax ([15]; Sprague-Dawley, SD rats, single PO 40 mg/kg, brain, female, read-out: Tmax): 1 h
Cmax [15, 21]: 413 ng/g
MRT last [15, 21]: 7 h
AUC(0-t) [15, 22]: 3660 ng·h/mL
Cmax [15, 22]: 934 ng/mL
MRT last [15, 22]: 5.11 h
AUC(0-t) [15, 23]: 1680 ng·h/mL
Cmax [15, 23]: 544 ng/mL
MRT last [15, 23]: 4.5 h
Tmax ([15]; both sexes, Sprague-Dawley, SD rats, single PO 40 mg/kg, plasma, males and females, read-out: Tmax (time of maximal concentration) (converted)): 0.25 h
Cmax [15, 24]: 623 ng/g
MRT last [15, 24]: 6.4 h
AUC(0-t) [15, 25]: 2670 ng·h/mL
Cmax [15, 25]: 739 ng/mL
MRT last [15, 25]: 4.8 h
Kp ([15]; female, Sprague-Dawley, CSF/plasma, SD rats, 40 mg/kg PO, CSF/plasma, female): 0.0338
Kp ([15]; female, Sprague-Dawley, brain/plasma, SD rats, 40 mg/kg PO, brain/plasma, female): 0.928
AUC(0-t) ([15]; female, Sprague-Dawley, SD rats, single PO 40 mg/kg, brain, females): 3390 ng·h/mL
crossing of the blood-brain barrier ([15]; general statement): can cross the blood-brain barrier
Kp ([15]; male, Sprague-Dawley, CSF/plasma, SD rats, 40 mg/kg PO, CSF/plasma, male): 0.011
Kp ([15]; male, Sprague-Dawley, brain/plasma, SD rats, 40 mg/kg PO, brain/plasma, male): 1.31
AUC(0-t) ([15]; male, Sprague-Dawley, SD rats, single PO 40 mg/kg, brain, males): 2200 ng·h/mL
Tmax ([15]; SD rats, single PO 40 mg/kg, brain, male, read-out: Tmax): 0.25 h
Tmax ([15]; SD rats, single PO 40 mg/kg, plasma, female, read-out: Tmax): 0.25 h
Tmax ([15]; SD rats, single PO 40 mg/kg, plasma, male, read-out: Tmax): 0.25 h
fraction unbound [16]: < 0.24
fraction unbound [17]: < 0.24
